Structures can show the parent of a compound that is named as a salt. Values belong to the compound of their own block, whether it stands above or below them. Numbered stars: 1 amine (or outer) side, 2 acyl side, 3 side chain; on linkers, the order of the positions; unused ones are H or OH. Bridge positions count the residues as written; N and C are the ends. Square brackets hold non-standard residues; d marks the D form. Peptide text beside a SMILES is read from it. * marks the point of attachment. TBMB(SCH2CH2NH-DOTA) = O=C(O)CN1CCN(CC(=O)O)CCN(CC(=O)NCCSCc2cc(C[*:1])cc(C[*:2])c2)CCN(CC(=O)O)CC1; 1Nal = N[C@@H](Cc1cccc2ccccc12)C(=O)O; β3hC = N[C@@H](CS)CC(=O)O; Hexanoyl = CCCCCC(=O)*
Key:
[1] = biological target: T1, human recombinant FAP protein (Homo sapiens, UniProt Q12884); assay: Inhibitory activity against FAP protease activity (Z-Gly-Pro-AMC fluorescence); assay type: biochemical; settings: 125 pM FAP working solution, 90 min at room temperature; read-out: FAP IC50
T1 construct: purchased Acrobiosystems FAP-H82Q6
T1 sequence (Q12884 1-760): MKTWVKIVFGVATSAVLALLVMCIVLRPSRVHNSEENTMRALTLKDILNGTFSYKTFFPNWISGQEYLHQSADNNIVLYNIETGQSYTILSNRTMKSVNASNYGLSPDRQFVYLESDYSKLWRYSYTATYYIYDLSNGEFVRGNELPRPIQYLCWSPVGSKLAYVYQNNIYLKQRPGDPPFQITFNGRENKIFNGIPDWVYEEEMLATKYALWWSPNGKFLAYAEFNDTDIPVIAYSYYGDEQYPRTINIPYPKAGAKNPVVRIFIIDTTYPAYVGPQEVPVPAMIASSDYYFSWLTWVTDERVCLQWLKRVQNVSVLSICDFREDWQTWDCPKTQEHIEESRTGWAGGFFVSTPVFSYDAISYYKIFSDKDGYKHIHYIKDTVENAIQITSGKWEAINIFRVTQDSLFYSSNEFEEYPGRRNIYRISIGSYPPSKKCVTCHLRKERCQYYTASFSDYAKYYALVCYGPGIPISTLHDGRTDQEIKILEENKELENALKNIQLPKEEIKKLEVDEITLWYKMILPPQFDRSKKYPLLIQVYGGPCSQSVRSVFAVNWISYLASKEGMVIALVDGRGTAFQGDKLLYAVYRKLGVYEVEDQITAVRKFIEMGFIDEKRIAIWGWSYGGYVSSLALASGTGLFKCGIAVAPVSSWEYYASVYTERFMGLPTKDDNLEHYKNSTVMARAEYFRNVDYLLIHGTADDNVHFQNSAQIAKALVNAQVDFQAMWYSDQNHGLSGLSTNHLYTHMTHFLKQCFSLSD
Method: The human recombinant FAP protein (Acrobiosystems, FAP-H82Q6) was diluted to a 125 pM FAP working solution with an assay buffer (50 mM Tris-HCl, 1 M NaCl, 1 mg/mL BSA, pH 7.5), and the FAP substrate (Z-Gly-Pro-AMC (LEONBIO, 68542-93-8)) was diluted to a 150 µM substrate working solution with the assay buffer. 40 µl of FAP working solution and 20 µl of compounds at different concentrations (4-fold dilution) were taken, then 40 µl of substrate working solution was added, and the mixture was uniformly mixed on a shaker at room temperature for 1 min. The uniformly mixed mixture was reacted at room temperature in the dark for 90 min. The fluorescence value Ex = 380 nm/Em = 460 nm was read by using a microplate reader. The original data was saved, and the IC50 value of the compound was obtained by using the original data or the Inhibition% via calculation and analyzing the data with Graphpad PRISM.

[2] = biological target: T2, human recombinant DPP4 protein (Homo sapiens, UniProt P27487); assay: Inhibitory activity against DPP4 protease activity (H-Gly-Pro-AMC fluorescence); assay type: biochemical; settings: 125 pM DPP4 working solution, 90 min at room temperature
T2 construct: purchased Acrobiosystems DP4-H5211
T2 sequence (P27487 whole entry): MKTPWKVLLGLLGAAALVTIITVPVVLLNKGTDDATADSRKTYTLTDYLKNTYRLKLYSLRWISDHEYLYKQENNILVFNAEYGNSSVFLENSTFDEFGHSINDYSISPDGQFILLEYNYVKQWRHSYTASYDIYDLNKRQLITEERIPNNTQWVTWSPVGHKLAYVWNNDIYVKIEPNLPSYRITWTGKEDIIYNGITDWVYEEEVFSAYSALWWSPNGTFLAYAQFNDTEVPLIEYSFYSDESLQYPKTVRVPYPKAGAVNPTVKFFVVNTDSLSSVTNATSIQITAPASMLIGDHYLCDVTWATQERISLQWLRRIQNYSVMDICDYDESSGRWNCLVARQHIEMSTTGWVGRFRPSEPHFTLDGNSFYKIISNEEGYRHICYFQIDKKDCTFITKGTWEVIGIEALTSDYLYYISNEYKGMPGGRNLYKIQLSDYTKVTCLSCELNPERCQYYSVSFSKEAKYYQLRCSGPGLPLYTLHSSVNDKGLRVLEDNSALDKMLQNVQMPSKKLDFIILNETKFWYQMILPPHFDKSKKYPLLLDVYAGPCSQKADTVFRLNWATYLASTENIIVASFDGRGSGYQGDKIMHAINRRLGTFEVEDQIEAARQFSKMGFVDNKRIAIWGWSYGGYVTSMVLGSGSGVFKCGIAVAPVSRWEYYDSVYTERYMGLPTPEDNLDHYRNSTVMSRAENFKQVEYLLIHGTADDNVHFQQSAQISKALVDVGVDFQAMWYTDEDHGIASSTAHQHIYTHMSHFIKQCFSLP
Method: The human recombinant DPP4 protein (Acrobiosystems, DP4-H5211) was formulated into a 125 pM working solution with an assay buffer (20 mM Tris-HCl, 100 mM NaCl), and the DPP4 substrate (H-Gly-Pro-AMC.HBr (LEONBIO, 115035-46-6)) was diluted to a 250 µM DPP4 substrate working solution with the assay buffer. 40 µl of DPP4 working solution and 20 µl of compounds at different concentrations (4-fold dilution) were taken, then 40 µl of DPP4 substrate working solution was added, and the mixture was uniformly mixed on a shaker at room temperature for 1 min. The uniformly mixed mixture was reacted at room temperature in the dark for 90 min. Reading was made by microplate reader at excitation and emission wavelengths of 380 nm and 460 nm. The original data was saved, and the IC50 value of the compound was obtained by analyzing the data with Graphpad PRISM.

[3] = in vitro; settings: CD-1, mouse, plasma
Method: The plasma stability experiment was performed using plasma from CD-1 mice. The compounds were diluted to a concentration of 1 mM with methanol. To 0.792 mL of plasma, 8.00 µL of 1 mM of each test compound was added, and 50.0 µL of the plasma sample was taken after uniform mixing. The remaining sample was placed in a 37°C water bath and incubated for 24 h. […] After centrifugation, the sample was diluted 1-fold with 0.2% trifluoroacetic acid and analyzed by LC-MS/MS.

[4] = Distribution in tissues of HEK293-FAP tumor-bearing mice (gamma counter); assay type: in vivo, SCID mice; settings: male, SCID, mouse, in vivo, 100 uCi, total radioactivity
Method: (§1) Male SCID mice (6-8 weeks old) were subcutaneously inoculated with 5 × 10^6 HEK293-FAP cells (FAP was highly expressed in HEK293 cells). 10 days later, 30 mice with tumor size of 200-300 mm^3 were randomly divided into 3 groups. Each mouse in the 3 groups was administered with compound ^177Lu-3BP-3554, compound 29 and compound 30 with a radiation dose of 100 µCi, respectively. Blood, kidney and tumor tissues were collected at time points of 4 h, 8 h, 24 h, 72 h and 168 h, and all blood samples and tissue samples were measured for radioactive counts by gamma counter.

[5] = test system: HEK293-FAP cells; assay: as above; assay type: in vivo, SCID mice; settings: for injection dose%/g tissue at different time points / tissue selectivity for kidney and blood tissues: mouse, in vivo; for Blood / Kidney / Tumor: 100 µCi, SCID mice with HEK293-FAP tumor
Method: as §1

[6] = Pharmacokinetics after tail vein injection; assay type: in vivo, CD-1 mice; settings: male, CD-1, mouse, in vivo, iv, 0.2 mg/kg
Method: Male CD-1 mice weighing 30-35 g were selected, and a test compound was injected into the tail vein at 0.2 mg/kg. Plasma samples were collected at 5, 15, 30, and 60 min and 2, 4, 8, and 24 h after administration and processed accordingly. The drug content was analyzed by LC-MS/MS.
Among them, compounds 20, 21 and 22 were compounds formed by chelating nonradioactive in with compounds 11, 14 and 16, respectively.

IC50 [1]: 0.97 nM | IC50 [2]: > 10000 nM | remaining at 24 h, 10 µM [3]: 100%
SMILES: CCCCCC(=O)N[C@H]1CSCc2cc(CSCCNC(=O)CN3CCN(CC(=O)O)CCN(CC(=O)O)CCN(CC(=O)O)CC3)cc(c2)CSC[C@@H](CC(=O)N[C@@H](Cc2ccc3ccccc3c2)C(=O)O)NC(=O)[C@H](Cc2ccccc2)NC(=O)[C@H](CCC(N)=O)NC(=O)[C@H]([C@@H](C)O)NC(=O)[C@@H]2CCCN2C(=O)[C@@H]2CCCN2C1=O [Compound 13, Hex-Cys-Pro-Pro-Thr-Gln-Phe-beta-HomoCys-2Nal (Cys bridge TBMB (DOTA-AET)) trifluoroacetate]

IC50 [1]: 0.26 nM | IC50 [2]: > 10000 nM | remaining at 24 h, 10 µM [3]: 94%
SMILES: CCCCCC(=O)N[C@H]1CSCc2cc(CSCCNC(=O)CN3CCN(CC(=O)O)CCN(CC(=O)O)CCN(CC(=O)O)CC3)cc(c2)CSC[C@@H](CC(=O)O)NC(=O)[C@H](Cc2cccc3ccccc23)NC(=O)[C@H](CCC(N)=O)NC(=O)[C@H]([C@@H](C)O)NC(=O)[C@@H]2CCCN2C(=O)[C@@H]2CCCN2C1=O [Compound 11, Hex-Cys-Pro-Pro-Thr-Gln-1Nal-beta-HomoCys (Cys bridge TBMB (DOTA-AET)) trifluoroacetate] (Hexanoyl-CPPTQ[1Nal][β3hC]-OH; linker 1-7 via TBMB(SCH2CH2NH-DOTA))

tissue to tissue ratio at 4 h ([4]; Tumor/blood): 26.2 | tissue to tissue ratio at 8 h ([4]; Tumor/blood): 70.1 | tissue to tissue ratio at 24 h ([4]; Tumor/blood): 1630 | tissue to tissue ratio at 72 h ([4]; Tumor/blood): 2410 | tissue to tissue ratio at 168 h ([4]; Tumor/blood): 1160 | tissue to tissue ratio at 4 h ([4]; Tumor/kidney): 2.32 | tissue to tissue ratio at 8 h ([4]; Tumor/kidney): 3.18 | tissue to tissue ratio at 24 h ([4]; Tumor/kidney): 3.99 | tissue to tissue ratio at 72 h ([4]; Tumor/kidney): 7.12 | tissue to tissue ratio at 168 h ([4]; Tumor/kidney): 27.6
SMILES: CCCCCC(=O)N[C@H]1CSCc2cc(CSCCNC(=O)CN3CCN(CC(=O)O)CCN(CC(=O)O)CCN(CC(=O)O)CC3)cc(c2)CSC[C@@H](CC(=O)O)NC(=O)[C@H](Cc2cccc3ccccc23)NC(=O)[C@H](CCC(N)=O)NC(=O)[C@H]([C@@H](C)O)NC(=O)[C@@H]2CCCN2C(=O)[C@@H]2CCCN2C1=O [Compound 29] (Hexanoyl-CPPTQ[1Nal][β3hC]-OH; linker 1-7 via TBMB(SCH2CH2NH-DOTA))
injection dose%/g tissue at different time points [5]: significantly higher than that of ^177Lu-3BP-3554 | tissue selectivity for kidney and blood tissues [5]: better tissue selectivity for kidney and blood tissues than ^177Lu-3BP-3554

tissue to tissue ratio at 4 h ([4]; Tumor/blood): 16.3 | tissue to tissue ratio at 8 h ([4]; Tumor/blood): 32.3 | tissue to tissue ratio at 24 h ([4]; Tumor/blood): 212 | tissue to tissue ratio at 72 h ([4]; Tumor/blood): 1100 | tissue to tissue ratio at 168 h ([4]; Tumor/blood): 484 | tissue to tissue ratio at 4 h ([4]; Tumor/kidney): 6.88 | tissue to tissue ratio at 8 h ([4]; Tumor/kidney): 5.56 | tissue to tissue ratio at 24 h ([4]; Tumor/kidney): 5.95 | tissue to tissue ratio at 72 h ([4]; Tumor/kidney): 6.98 | tissue to tissue ratio at 168 h ([4]; Tumor/kidney): 11.8
SMILES: CCCCCC(=O)N[C@H]1CSCc2cccc(c2F)CSC[C@@H](CNC(=O)C[C@@H](C)NC(=O)[C@H]2CC[C@H](CNC(=O)CN3CCN(CC(=O)O)CCN(CC(=O)O)CCN(CC(=O)O)CC3)CC2)NC(=O)[C@H](Cc2ccccc2)NC(=O)[C@H](CCC(N)=O)NC(=O)[C@H]([C@@H](C)O)NC(=O)[C@@H]2CCCN2C(=O)[C@@H]2CCCN2C1=O [Compound 30]
injection dose%/g tissue at different time points [5]: significantly higher than that of ^177Lu-3BP-3554 | tissue selectivity for kidney and blood tissues [5]: better tissue selectivity for kidney and blood tissues than ^177Lu-3BP-3554

Blood ([5]; 4 h): 0.07 ID %/g | Kidney ([5]; 4 h): 6.65 ID %/g | Tumor ([5]; 4 h): 21.21 ID %/g | Blood ([5]; 8 h): 0.02 ID %/g | Kidney ([5]; 8 h): 6.37 ID %/g | Tumor ([5]; 8 h): 18.42 ID %/g | Blood ([5]; 24 h): 0.01 ID %/g | Kidney ([5]; 24 h): 2.92 ID %/g | Tumor ([5]; 24 h): 10.37 ID %/g | Blood ([5]; 72 h): 0.0038 ID %/g | Kidney ([5]; 72 h): 0.86 ID %/g | Tumor ([5]; 72 h): 5.05 ID %/g | Blood ([5]; 168 h): 0.0091 ID %/g | Kidney ([5]; 168 h): 0.16 ID %/g | Tumor ([5]; 168 h): 1.52 ID %/g
SMILES: CCCCCC(=O)N[C@H]1CSCc2cc(CSCCNC(=O)CN3CCN(CC(=O)O)CCN(CC(=O)O)CCN(CC(=O)O)CC3)cc(c2)CSC[C@@H](C(=O)O)NC(=O)[C@H](Cc2ccccc2)NC(=O)[C@H](CCC(N)=O)NC(=O)[C@H]([C@@H](C)O)NC(=O)[C@@H]2CCCN2C(=O)[C@@H]2CCCN2C1=O [^177Lu-3BP-3554, metal not drawn, reference compound]

IC50 [2]: > 10000 nM | remaining at 24 h, 10 µM [3]: 87%
SMILES: CCCCCC(=O)N[C@H]1CSCc2cc(CSCCNC(=O)CN3CCN(CC(=O)O)CCN(CC(=O)O)CCN(CC(=O)O)CC3)cc(c2)CSC[C@@H](C(=O)O)NC(=O)[C@H](Cc2ccccc2)NC(=O)[C@H](CCC(N)=O)NC(=O)[C@H]([C@@H](C)O)NC(=O)[C@@H]2CCCN2C(=O)[C@@H]2CCCN2C1=O [Compound 3BP-3554, reference compound]

AUC(0-t) [6]: 308 ng·h/mL | Cmax [6]: 772 ng/mL | Vd [6]: 0.52 L/kg | clearance [6]: 10.2 mL/min/kg | half-life [6]: 1.63 h
SMILES: CCCCCC(=O)N[C@H]1CSCc2cc(CSCCNC(=O)CN3CCN(CC(=O)O)CCN(CC(=O)O)CCN(CC(=O)O)CC3)cc(c2)CSC[C@@H](CC(=O)O)NC(=O)[C@H](Cc2cccc3ccccc23)NC(=O)[C@H](CCC(N)=O)NC(=O)[C@H]([C@@H](C)O)NC(=O)[C@@H]2CCCN2C(=O)[C@@H]2CCCN2C1=O [Compound 20] (Hexanoyl-CPPTQ[1Nal][β3hC]-OH; linker 1-7 via TBMB(SCH2CH2NH-DOTA))

— EP4653451A1, “POLYPEPTIDE COMPOUND AND USE THEREOF” (Chengdu New Radiomedicine Technology Co., Ltd., priority 2023, dated 2024)
